# Test results taken from US20250228239A1, “MOLECULES HAVING PESTICIDAL UTILITY, AND INTERMEDIATES, COMPOSITIONS, AND PROCESSES, RELATED THERETO” (priority 2024, published 2025).
# Read-outs that look alike come from different tables or passages of the source.
# What was measured:
# Type in all cases: in vivo
# [1] = test system: Beet Armyworm (Spodoptera exigua, LAPHEG); assay: Bioassays on Beet Armyworm (BAW), 128-well diet tray assay; conditions: Spodoptera exigua
# Outline: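 Diet-overlay assay: 50 μg/cm^2 compound applied in 90:10 acetone-water to artificial diet, allowed to dry, then infested with 1–5 L2 larvae/well; 8 wells/compound; covered, vented; 25° C., 14:10 L:D, 5–7 d; % mortality per well, averaged.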
# [2] = test system: Cabbage Looper (Trichoplusia ni, TRIPNI); assay: Bioassays on Cabbage Looper (CL), 128-well diet tray assay; conditions: Trichoplusia ni
# Outline: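 Each of eight wells receives artificial diet treated at 50 μg/cm^2 with the test molecule, then one to five second-instar larvae. Incubation runs five to seven days at 25° C with a 14:10 light-dark cycle under vented covers. Mortality is scored per well as a percentage and averaged.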
# [3] = test system: Yellow Fever Mosquito (Aedes aegypti, AEDSAE); conditions: for YFM rating: Table ABC / ABC-DP rating
# Outline: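 Larvae ~1 day old, in liver powder/water; compound from 4000 ppm DMSO stock diluted with water/acetone (90:10); 6 reps; lidded, RT, 3 d; mortality scored per well, rated.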
# [4] = Table ABC: Biological Results, species BAW, read-out: BAW
# [5] = Table ABC: Biological Results, species CL, read-out: CL
# [6] = Table ABC: Biological Results, species YFM
# [7] = Beet Armyworm, Table ABC / ABC-DP rating, read-out: BAW rating
# [8] = Cabbage Looper, Table ABC / ABC-DP rating, read-out: CL rating
# [9] = Beet Armyworm, rating class, read-out: BAW
# [10] = Cabbage Looper, rating class, read-out: CL
# [11] = Yellow Fever Mosquito, rating class
SMILES,"pest or weed control at 50 µg/cm2 [1, 4] [%]","pest or weed control at 50 µg/cm2 [2, 5] [%]","YFM [3, 6]","pest or weed control at 50 µg/cm2 [1, 7] [%]","pest or weed control at 50 µg/cm2 [2, 8] [%]",YFM rating ([3]; Yellow Fever Mosquito),also measured
"O=C(Nc1c(F)ccc(NC(=O)c2cc(NC(=O)[C@H]3[C@H](c4ccc(Cl)c(Cl)c4)C3(Cl)Cl)ccc2Cl)c1F)c1ccccc1 [F1253, N-(3-Benzamido-2,4-difluorophenyl)-2-chloro-5-((1R,3R)-2,2-dichloro-3-(3,4-dichlorophenyl)cyclopropane-1-carboxamido)benzamide]",50 to 100,50 to 100,A (80–100),,,,
"O=C(Nc1ccc(F)c(NC(=O)C(F)(F)F)c1F)c1cc(NC(=O)[C@H]2[C@H](c3cc(C(F)(F)F)cc(C(F)(F)F)c3)C2(Cl)Cl)ccc1Cl (relative stereo) [F1801, trans-5-(3-(3,5-bis(Trifluoromethyl)phenyl)-2,2-dichlorocyclopropane-1-carboxamido)-2-chloro-N-(2,4-difluoro-3-(2,2,2-trifluoroacetamido)phenyl)benzamide]",,,,50 to 100,50 to 100,A (80–100),
"O=C(Nc1ccc(F)c(NC(=O)C(F)F)c1F)c1cc(NC(=O)[C@H]2[C@H](c3ccc(F)c(Br)c3)C2(Cl)Cl)ccc1Cl [F1410, 5-((1R,3R)-3-(3-Bromo-4-fluorophenyl)-2,2-dichlorocyclopropane-1-carboxamido)-2-chloro-N-(3-(2,2-difluoroacetamido)-2,4-difluorophenyl)benzamide]",,,,,,,"pest or weed control at 50 µg/cm2 [1, 9]: 50 to 100%; pest or weed control at 50 µg/cm2 [2, 10]: 50 to 100%; YFM [3, 11]: A (80–100)"
"O=C(COC(F)(F)F)Nc1c(F)ccc(NC(=O)c2cc(NC(=O)[C@H]3[C@H](c4ccc(F)c(Br)c4)C3(Cl)Cl)ccc2Cl)c1F [F1780, 5-((1R,3R)-3-(3-Bromo-4-fluorophenyl)-2,2-dichlorocyclopropane-1-carboxamido)-2-chloro-N-(2,4-difluoro-3-(2-(trifluoromethoxy)acetamido)phenyl)benzamide]",,,,50 to 100,50 to 100,A (80–100),
"O=C(Nc1ccc(F)cc1F)c1cc(NC(=O)[C@H]2[C@H](c3cccc(I)c3)C2(Cl)Cl)ccc1Cl (relative stereo) [F1088, trans-2-Chloro-5-(2,2-dichloro-3-(3-iodophenyl)cyclopropane-1-carboxamido)-N-(2,4-difluorophenyl)benzamide]",50 to 100,50 to 100,A (80–100),,,,
"O=C(CCNC(=O)c1cc(NC(=O)C2C(c3cc(Cl)cc(Cl)c3)C2(Cl)Cl)ccc1Cl)NCC(F)(F)F [F2079, trans-2-Chloro-5-((1R,3R)-2,2-dichloro-3-(3,5-dichlorophenyl)cyclopropane-1-carboxamido)-N-(3-oxo-3-(2,2,2-trifluoroethylamino)propyl)benzamide]",,,,50 to 100,50 to 100,A (80–100),
"O=C(CC(F)(F)F)Nc1c(F)ccc(NC(=O)c2cc(NC(=O)[C@H]3[C@H](c4cccc(C(F)(F)F)c4)C3(Cl)Cl)ccc2Cl)c1F [F1738, 2-Chloro-5-((1R,3R)-2,2-dichloro-3-(3-(trifluoromethyl)phenyl)cyclopropane-1-carboxamido)-N-(2,4-difluoro-3-(3,3,3-trifluoropropanamido)phenyl)benzamide]",,,,,,,"pest or weed control at 50 µg/cm2 [1, 9]: 50 to 100%; pest or weed control at 50 µg/cm2 [2, 10]: 50 to 100%; YFM [3, 11]: A (80–100)"
"O=C(Nc1c(F)ccc(NC(=O)c2cc(NC(=O)[C@H]3[C@H](c4ccc(F)c(C(F)(F)F)c4)C3(Cl)Cl)ccc2Cl)c1F)C(=O)c1ccccc1 [F1298, 2-Chloro-5-((1R,3R)-2,2-dichloro-3-(4-fluoro-3-(trifluoromethyl)phenyl)cyclopropane-1-carboxamido)-N-(2,4-difluoro-3-(2-oxo-2-phenylacetamido)phenyl)benzamide]",50 to 100,50 to 100,A (80–100),,,,
"COCC(=O)N(C)c1c(F)ccc(NC(=O)c2cc(NC(=O)[C@H]3[C@H](c4ccc(Cl)c(Cl)c4)C3(Cl)Cl)ccc2Cl)c1F [F1630, 2-Chloro-5-((1R,3R)-2,2-dichloro-3-(3,4-dichlorophenyl)cyclopropane-1-carboxamido)-N-(2,4-difluoro-3-(2-methoxy-N-methylacetamido)phenyl)benzamide]",,,,,,,"pest or weed control at 50 µg/cm2 [1, 9]: 50 to 100%; pest or weed control at 50 µg/cm2 [2, 10]: 50 to 100%; YFM [3, 11]: A (80–100)"
"O=C(Nc1ccc(F)c(NC(=O)C(F)F)c1F)c1cc(NC(=O)[C@H]2[C@H](c3ccc(F)c(C(F)(F)F)c3)C2(Cl)Cl)ccc1Cl [F1175, 2-Chloro-5-((1R,3R)-2,2-dichloro-3-(4-fluoro-3-(trifluoromethyl)phenyl)cyclopropane-1-carboxamido)-N-(3-(2,2-difluoroacetamido)-2,4-difluorophenyl)benzamide]",50 to 100,50 to 100,A (80–100),,,,
"Cc1cc([C@H]2[C@H](C(=O)Nc3ccc(Cl)c(C(=O)NCC(F)(F)F)c3)C2(Cl)Cl)cc(C(F)(F)F)c1F (relative stereo) [F2014, trans-2-Chloro-5-(2,2-dichloro-3-(4-fluoro-3-methyl-5-(trifluoromethyl)phenyl)-cyclopropane-1-carboxamido)-N-(2,2,2-trifluoroethyl)benzamide]",,,,50 to 100,50 to 100,A (80–100),
"O=C(Nc1ccc(F)c(NC(=O)C(F)(F)C(F)F)c1F)c1cc(NC(=O)[C@H]2[C@H](c3ccc(Cl)c(Cl)c3)C2(Cl)Cl)ccc1Cl [F1414, 2-Chloro-5-((1R,3R)-2,2-dichloro-3-(3,4-dichlorophenyl)cyclopropane-1-carboxamido)-N-(2,4-difluoro-3-(2,2,3,3-tetrafluoropropanamido)phenyl)benzamide]",,,,,,,"pest or weed control at 50 µg/cm2 [1, 9]: 50 to 100%; pest or weed control at 50 µg/cm2 [2, 10]: 50 to 100%; YFM [3, 11]: A (80–100)"
"O=C(NNCc1ccccc1)c1cc(NC(=O)[C@H]2[C@H](c3cc(Cl)cc(Cl)c3)C2(Cl)Cl)ccc1Cl (relative stereo) [F2545, trans-N-(3-(2-Benzylhydrazine-1-carbonyl)-4-chlorophenyl)-2,2-dichloro-3-(3,5-dichlorophenyl)cyclopropane-1-carboxamide]",,,,50 to 100,50 to 100,A (80–100),
"O=C(NCCNC(=O)C(F)(F)C(F)(F)F)c1cc(NC(=O)[C@H]2[C@H](c3cc(Cl)cc(Cl)c3)C2(Cl)Cl)ccc1Cl (relative stereo) [F2096, trans-2-Chloro-5-(2,2-dichloro-3-(3,5-dichlorophenyl)cyclopropane-1-carboxamido)-N-(2-(2,2,3,3,3-pentafluoropropanamido)ethyl)benzamide]",,,,50 to 100,50 to 100,B (More than 0 – Less than 80),
"CCC(F)(F)C(=O)Nc1c(F)ccc(NC(=O)c2cc(NC(=O)[C@H]3[C@H](c4ccc(F)c(C(F)(F)F)c4)C3(Cl)Cl)ccc2Cl)c1F [F1357, 2-Chloro-5-((1R,3R)-2,2-dichloro-3-(4-fluoro-3-(trifluoromethyl)phenyl)cyclopropane-1-carboxamido)-N-(3-(2,2-difluorobutanamido)-2,4-difluorophenyl)benzamide]",50 to 100,50 to 100,A (80–100),,,,
"O=C(Nc1ccc(NC(=O)C(F)(F)F)c(Cl)c1)c1cc(NC(=O)[C@H]2[C@H](c3ccc(F)c(Cl)c3)C2(Cl)Cl)ccc1Cl (relative stereo) [F1384, trans-2-Chloro-N-(3-chloro-4-(2,2,2-trifluoroacetamido)phenyl)-5-(2,2-dichloro-3-(3-chloro-4-fluorophenyl)cyclopropane-1-carboxamido)benzamide]",50 to 100,50 to 100,A (80–100),,,,
"O=C(CCC(F)(F)F)Nc1c(F)ccc(NC(=O)c2cc(NC(=O)[C@H]3[C@H](c4ccc(F)c(Cl)c4)C3(Cl)Cl)ccc2Cl)c1F [F1848, 2-Chloro-5-((1R,3R)-2,2-dichloro-3-(3-chloro-4-fluorophenyl)cyclopropane-1-carboxamido)-N-(2,4-difluoro-3-(4,4,4-trifluorobutanamido)phenyl)benzamide]",,,,50 to 100,50 to 100,A (80–100),
"CC(=O)Nc1cc(NC(=O)c2cc(NC(=O)[C@H]3[C@H](c4ccc(F)c(C(F)(F)F)c4)C3(Cl)Cl)ccc2F)c(F)cc1F [F1559, N-(5-Acetamido-2,4-difluorophenyl)-5-((1R,3R)-2,2-dichloro-3-(4-fluoro-3-(trifluoromethyl)phenyl)cyclopropane-1-carboxamido)-2-fluorobenzamide]",,,,,,,"pest or weed control at 50 µg/cm2 [1, 9]: 50 to 100%; pest or weed control at 50 µg/cm2 [2, 10]: 50 to 100%; YFM [3, 11]: A (80–100)"
"O=C(NNCC1CC1)c1cc(NC(=O)[C@H]2[C@H](c3cc(Cl)cc(Cl)c3)C2(Cl)Cl)ccc1Cl (relative stereo) [F2549, trans-2,2-Dichloro-N-(4-chloro-3-(2-(cyclopropylmethyl)hydrazine-1-carbonyl)phenyl)-3-(3,5-dichlorophenyl)cyclopropane-1-carboxamide]",,,,50 to 100,50 to 100,A (80–100),
